In data set [1] the target is Human CGRP receptors (consisting of CRLR and RAMP1) (Homo sapiens (Human), UniProt O60894+Q16602). Description: Radioligand binding assay (3H-telcagepant displacement). The note with it: Sf21 cell membranes, 0.5 nM 3H-telcagepant, Ki by Cheng-Prussoff. As for the experimental part:
Human Calcitonin Receptor Like Receptor (CRLR) and human RAMP1 were cloned into Invitrogen's (ThermoFisher Scientific, UK) pFastBac dual expression vector. Transposition of CRLR/RAMP1 DNA was performed using Invitrogen's Bac-to-Bac Baculovirus Expression Systems. P0 baculovirus was generated by transfecting SF9 cells with bacmid DNA using Cellfectin® II transfection reagent (ThermoFisher Scientific, UK, catalog number 10362-100). Following P0 generation P1 virus was then generated ready for large scale infection and membrane preparation. Sf21 cells were grown in expression medium ESF921 (Expression Systems, USA, catalog number 96-001-01) supplemented with 10% heat-inactivated FBS and 1% Pen/Strep and were infected at a cell density of 2.5×10^6 cells/mL and an MOI of 2. Expression was carried out over 48 h in a shaking incubator set at 27° C. The cell culture was centrifuged at 2,500 rcf for 10 min at 4° C. The pellets were resuspended in cold PBS supplemented with Roche's Complete EDTA-free protease inhibitor cocktail tablets (Roche Applied Sciences, catalog number 05056489001), 1 mM PMSF and 1 mM EDTA. The resuspended cell paste was then centrifuged at 3,273 rcf for 12 min at 4° C. The supernatant was discarded and the pellet frozen at −80° C. The cell pellet from a 4 L culture was resuspended in buffer containing 50 mM Hepes pH 7.5, 150 mM NaCl, 8 Roche EDTA-free protease inhibitor cocktail tablets and 1 mM PMSF. The suspension was left stirring at rt for 1 h and then homogenised for 90 s at 9,500 rpm using a VDI 25 (VWR, USA) homogeniser. The cells were then lysed using a Microfluidizer processor M-110L Pneumatic (Microfluidics, USA). After lysis, the mixture was homogenised for 90 s at 9,500 rpm and then centrifuged at 335 rcf for 10 min. The supernatant was then further ultra-centrifuged at 42,000 rpm for 90 min. After ultra-centrifugation, the supernatant was discarded and the pellet was resuspended in 50 mL (25 mL for each 2 L culture) of buffer containing 50 mM Hepes pH 7.5, 150 mM NaCl, 3 Roche EDTA-free protease inhibitor cocktail tablets and 1 mM PMSF. The suspension was then homogenised for 90 s at 9,500 rpm. The resulting membranes were then stored at −80° C.
Human CGRP receptors (consisting of CRLR and RAMP1) expressed in insect Sf21 cell membrane homogenates were re-suspended in the binding buffer (10 mM HEPES, pH 7.4, 5 mM MgCl2, 0.2% BSA) to a final assay concentration of […]. Saturation isotherms were determined by the addition of various concentrations of ^3H-telcagepant (Ho et al, The Lancet, 2008, 372, 2115) (in a total reaction volume of 250 μL) for 60 min at room temperature. At the end of the incubation, membranes were filtered onto a unifilter, a 96-well white microplate with bonded GF/B filter pre-incubated with 0.5% PEI, with a Tomtec cell harvester and washed 5 times with distilled water. Non-specific binding (NSB) was measured in the presence of 10 nM MK-3207 hydrochloride (CAS No. 957116-20-0). Radioactivity on the filter was counted (1 min) on a microbeta counter after addition of 50 μL of scintillation fluid.

Data set [2] has as its target human CGRP receptor (Homo sapiens (Human), UniProt O60894+Q16602). Description: cAMP functional assay (HTRF) in SK-N-MC cells. The class given is cell-based. Particulars: read-out: pKb average (converted). The method, then:
cAMP production following receptor activation was determined using the Homogeneous Time-Resolved Fluorescence (HTRF) cAMP dynamic-2 assay (Cisbio, France). The human neuroblastoma cell line SK-N-MC endogenously expressing the human CGRP receptor was seeded at a density of 12,500 cells/well in solid walled 96 well half area plates (Costar, Catalog Number 3688, Corning Life Sciences, Germany). After 16 h incubation at 37° C. media was removed and cells were incubated at 37° C. for 30 min in serum free media containing 500 μM IBMX (Tocris, Abingdon, UK, Catalog Number 2845) and increasing concentrations of test antagonist. Following this cells were challenged with an EC80 concentration of human CGRP (0.3 nM) for a further 30 min at 37° C. and then cAMP production was determined as manufacturer's instructions before plates were read on a PheraStar fluorescence plate reader (BMG LabTech, Germany). IC50 values were derived from the inhibition curve. The pIC50 values (where pIC50=−log10 IC50) were converted to a functional pKb value using a modified Cheng-Prussoff equation where Kd=agonist EC50 and L hot=agonist challenge concentration. The pKb values of certain compounds of the invention are detailed in Table 3.

Data set [3] is described as follows: Thermodynamic solubility profiling. The class given is physicochemical. Particulars: aqueous buffer, thermodynamic from solid. The method, then:
A 50 mM DMSO stock solution of test compound was prepared, and from this, a working solution of 1 mM was prepared by dilution with DMSO. The UV absorbance of working solution was scanned from 220 nm to 1000 nm to identify the wavelength maxima of test compound. The 1 mM working solution was then serially diluted in DMSO to different concentrations to determine linearity/calibration curve. […] The resulting solution was then kept on a RotoSpin shaker at 50 rpm for 24 h at rt before the solution was filtered using 0.45 micron PVDF injector filters in order to remove the insoluble fraction of the compound. Subsequently, 150 uL of the filtrate is taken for quantification using a UV spectrophotometer, acquiring the optical density of standard solutions and test compound at the same wavelength maxima. From the optical density of test compound the thermodynamic solubility is calculated using the linearity/calibration curve and expressed as micromolar (μM). Solubility profiles of certain compounds of the invention are detailed in Table 6.

Data set [4] is described as follows: Pharmacokinetic profiling in rat. The class given is in vivo, male Sprague Dawley rats. Particulars: male, Sprague Dawley, plasma.
Method: Prior to IN dosing rats were anaesthetised with an intramuscular dose of 25-30 mg/kg ketamine cocktail (ketamine, xylazine hydrochloride and acepromazine maleate in saline) and the dose is introduced over 20-30 s via a polyethylene PE-10 tube inserted approximately 5 mm into the nasal cavity of the rat.
(§1) Following dosing by the routes above blood samples were taken at several time points (typically pre-dose, 0.083, 0.25, 0.5 1, 2, 4, 8 and 24 h) via serial tail vein bleeds (rat) or cephalic or saphenous vein (monkey) from the animal and centrifuged to separate plasma for analysis by LC/MS/MS assay. WinNonlin v6.2 statistics software (Pharsight Corporation, California, USA) was used to generate pharmacokinetic parameters using the non-compartmental model.
A short description of data set [5]: Pharmacokinetic profiling in cynomolgus monkey. The class given is in vivo, male Cynomolgus Monkeys. The note with it: male, plasma, 0.5 mg/kg, acidified saline; for clearance: cynomolgus monkey iv; for bioavailability: cynomolgus monkey sc.
Method: as §1
Where [6] appears, read: PBS buffer pH 7.4, 24 h at rt, read-out: Thermodynamic solubility pH 7.4.
Where [7] appears, read: Sodium Phosphate Buffer pH 6.0, 24 h at rt, read-out: Thermodynamic solubility pH 6.

Converted amounts (≈) assume the structure as drawn. Read-outs that look alike come from different tables or passages of the source.

Chain of human CGRP receptor (Q16602 23-461): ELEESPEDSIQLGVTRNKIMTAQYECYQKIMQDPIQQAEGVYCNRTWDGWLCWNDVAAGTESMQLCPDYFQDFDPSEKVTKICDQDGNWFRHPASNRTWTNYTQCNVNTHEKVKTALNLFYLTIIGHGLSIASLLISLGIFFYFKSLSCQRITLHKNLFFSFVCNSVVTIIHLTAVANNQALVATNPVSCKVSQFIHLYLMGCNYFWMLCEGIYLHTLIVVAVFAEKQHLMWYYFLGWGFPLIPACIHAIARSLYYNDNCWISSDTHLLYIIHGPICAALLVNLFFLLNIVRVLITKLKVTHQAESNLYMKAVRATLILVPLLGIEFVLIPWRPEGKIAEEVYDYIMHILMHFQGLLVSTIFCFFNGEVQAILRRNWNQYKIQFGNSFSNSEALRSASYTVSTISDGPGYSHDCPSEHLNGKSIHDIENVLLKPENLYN
Chain of human CGRP receptor (O60894 27-148): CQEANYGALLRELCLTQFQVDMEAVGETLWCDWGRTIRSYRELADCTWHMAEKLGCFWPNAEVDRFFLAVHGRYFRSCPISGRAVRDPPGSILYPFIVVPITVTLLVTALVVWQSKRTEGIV
Chain of Human CGRP receptors (consisting of CRLR and RAMP1) (Q16602 23-461): as the sequence (Q16602 23-461) above
Chain of Human CGRP receptors (consisting of CRLR and RAMP1) (O60894 27-148): as the sequence (O60894 27-148) above

Turning to `Cc1cc(C[C@@H](NC(=O)N2CCC(c3cc4ccccc4[nH]c3=O)CC2)C(=O)N2CCC(N3CCC(c4ncc[nH]4)CC3)CC2)cc2cn[nH]c12` [Example 1, N-[(2R)-1-[4-(1H-imidazol-2-yl)-1,4′-bipiperidin-1′-yl]-3-(7-methyl-1H-indazol-5-yl)-1-oxopropan-2-yl]-4-(2-oxo-1,2-dihydroquinolin-3-yl)piperidine-1-carboxamide], the pKi average in data set [1] is 10.3. Further, in data set [2], the Kb is 0.2 nM.

For orientation: solubility (thermodynamic) means solubility found after equilibrating the solid with the medium. Molecule `Cc1cc(C[C@@H](NC(=O)N2CCC(c3cc4ccccc4[nH]c3=O)CC2)C(=O)N2CCC(N3CCC(c4nnc[nH]4)CC3)CC2)cc2cn[nH]c12` [Example 7, N-{(2R)-3-(7-methyl-1H-indazol-5-yl)-1-oxo-1-[4-(4H-1,2,4-triazol-3-yl)-1,4′-bipiperidin-1′-yl]propan-2-yl}-4-(2-oxo-1,2-dihydroquinolin-3-yl)piperidine-1-carboxamide] displayed a pKi average in data set [1] of 9.8. In data set [2], the Kb is 0.316 nM. The results for the solubility (thermodynamic) at 24 h in data set [3] (setting [6]) and in data set [3] (setting [7]) were 342 µM (≈ 236 µg/mL) and 785 µM (≈ 542 µg/mL), respectively.

In data set [1], `Cc1nnc(C2CCN(C3CCN(C(=O)[C@@H](Cc4cc(C)c5[nH]ncc5c4)NC(=O)N4CCC(c5cc6ccccc6[nH]c5=O)CC4)CC3)CC2)[nH]1` [Example 8, N-{(2R)-3-(7-methyl-1H-indazol-5-yl)-1-[4-(5-methyl-4H-1,2,4-triazol-3-yl)-1,4′-bipiperidin-1′-yl]-1-oxopropan-2-yl}-4-(2-oxo-1,2-dihydroquinolin-3-yl)piperidine-1-carboxamide] yielded a pKi average of 10.0. In addition, the Kb in data set [2] is 0.316 nM. Also, the thermodynamic solubility at 24 h came to 359 µM (≈ 253 µg/mL) in data set [3] (setting [6]) and 1220 µM (≈ 858 µg/mL) in data set [3] (setting [7]).

For the molecule `CCOC(=O)c1nnc(C2CCN(C3CCN(C(=O)[C@@H](Cc4cc(C)c5[nH]ncc5c4)NC(=O)N4CCC(c5cc6ccccc6[nH]c5=O)CC4)CC3)CC2)[nH]1` [Example 6, ethyl 5-{1′-[(2R)-3-(7-methyl-1H-indazol-5-yl)-2-({[4-(2-oxo-1,2-dihydroquinolin-3-yl)piperidin-1-yl]carbonyl}amino)propanoyl]-1,4′-bipiperidin-4-yl}-4H-1,2,4-triazole-3-carboxylate], in data set [1], the pKi average was 10.2. For the same molecule, in data set [2], the Kb is 0.2 nM.

For `Cc1cc(C[C@@H](NC(=O)N2CCC(c3cc4ccccc4[nH]c3=O)CC2)C(=O)N2CCC(N3CCC(c4nnc(C(=O)O)[nH]4)CC3)CC2)cc2cn[nH]c12` [Example 9, 5-{1′-[(2R)-3-(7-methyl-1H-indazol-5-yl)-2-({[4-(2-oxo-1,2-dihydroquinolin-3-yl)piperidin-1-yl]carbonyl}amino)propanoyl]-1,4′-bipiperidin-4-yl}-4H-1,2,4-triazole-3-carboxylic Acid], the pKi average in data set [1] was found to be 10.3. For the same molecule, the Kb in data set [2] was 0.398 nM.

Broadly, the bioavailability is dose-corrected exposure relative to a reference, in per cent. What is called clearance is the rate of elimination divided by the concentration. Take `Cc1cc(C[C@@H](NC(=O)N2CCC(c3cc4ccccc4[nH]c3=O)CC2)C(=O)N2CCC(N3CCC(c4nncn4C)CC3)CC2)cc2cn[nH]c12` [Example 4, N-{(2R)-3-(7-methyl-1H-indazol-5-yl)-1-[4-(4-methyl-4H-1,2,4-triazol-3-yl)-1,4′-bipiperidin-1′-yl]-1-oxopropan-2-yl}-4-(2-oxo-1,2-dihydroquinolin-3-yl)piperidine-1-carboxamide]: in data set [1], the pKi average stood at 10.0. For the same molecule, the Kb in data set [2] was 0.631 nM. The bioavailability in data set [4] (inhaled or intranasal) was 27%; in data set [4] (sc) it was 82%; in data set [5] it was 100%. Also, the clearance in data set [5] is 15 mL/min/kg. The thermodynamic solubility at 24 h in data set [3] (setting [6]) is 32 µM (≈ 22.6 µg/mL); in data set [3] (setting [7]) it was 1590 µM (≈ 1120 µg/mL).

`NCCCC[C@H](NC(=O)[C@@H](Cc1cc(Br)c(O)c(Br)c1)NC(=O)N1CCC(N2Cc3ccccc3NC2=O)CC1)C(=O)N1CCN(c2ccncc2)CC1` [olcegepant, reference compound]: the bioavailability in data set [4] (inhaled or intranasal) was 8%; in data set [4] (sc) it was 48%. Further, the values for the thermodynamic solubility at 24 h in data set [3] (setting [6]) and in data set [3] (setting [7]) were 431 µM (≈ 375 µg/mL) and 150 µM (≈ 130 µg/mL), respectively.

`Cc1cc(C[C@@H](NC(=O)N2CCC(c3cc4ccc(F)cc4[nH]c3=O)CC2)C(=O)N2CCC(N3CCC(c4nncn4C)CC3)CC2)cc2cn[nH]c12` [Example 5, 4-(7-fluoro-2-oxo-1,2-dihydroquinolin-3-yl)-N-{(2R)-3-(7-methyl-1H-indazol-5-yl)-1-[4-(4-methyl-4H-1,2,4-triazol-3-yl)-1,4′-bipiperidin-1′-yl]-1-oxopropan-2-yl}piperidine-1-carboxamide] displayed a pKi average in data set [1] of 9.9. In addition, the Kb in data set [2] is 0.631 nM. In addition, the solubility (thermodynamic) at 24 h amounted to 239 µM (≈ 173 µg/mL) in data set [3] (setting [6]) and 1540 µM (≈ 1110 µg/mL) in data set [3] (setting [7]).

`CCCn1ccnc1C1CCN(C2CCN(C(=O)[C@@H](Cc3cc(C)c4[nH]ncc4c3)NC(=O)N3CCC(c4cc5ccccc5[nH]c4=O)CC3)CC2)CC1` [Example 3, N-{(2R)-3-(7-methyl-1H-indazol-5-yl)-1-oxo-1-[4-(1-propyl-1H-imidazol-2-yl)-1,4′-bipiperidin-1′-yl]propan-2-yl}-4-(2-oxo-1,2-dihydroquinolin-3-yl)piperidine-1-carboxamide]: the pKi average in data set [1] is listed as 9.8. The Kb in data set [2] was 0.398 nM. Moreover, the figures for the solubility (thermodynamic) at 24 h in data set [3] (setting [6]) and in data set [3] (setting [7]) were 2 µM (≈ 1.46 µg/mL) and 1250 µM (≈ 914 µg/mL), respectively.

In data set [1], `Cc1nc[nH]c1C1CCN(C2CCN(C(=O)[C@@H](Cc3cc(C)c4[nH]ncc4c3)NC(=O)N3CCC(c4cc5ccccc5[nH]c4=O)CC3)CC2)CC1` [Example 2, N-[(2R)-1-[4-(4-methyl-1H-imidazol-5-yl)-1,4′-bipiperidin-1′-yl]-3-(7-methyl-1H-indazol-5-yl)-1-oxopropan-2-yl]-4-(2-oxo-1,2-dihydroquinolin-3-yl)piperidine-1-carboxamide] returned a pKi average of 10.1. Moreover, the Kb in data set [2] was 0.316 nM. For the same molecule, the bioavailability in data set [4] (inhaled or intranasal) was 25%; in data set [4] (sc) it was 69%; in data set [5], 100%. Besides, in data set [5], the clearance is 24 mL/min/kg. The values for the thermodynamic solubility at 24 h in data set [3] (setting [6]) and in data set [3] (setting [7]) were 18 µM (≈ 12.7 µg/mL) and 2040 µM (≈ 1440 µg/mL), respectively.

For the origin of these results see patent publication US10166226B2, “CGRP receptor antagonists” (Heptares Therapeutics Limited, priority 2015, dated 2019).
